Structures can show the parent of a compound that is named as a salt.
Experiments:
[1] = target: T1, NLRP3 (Homo sapiens, UniProt Q96P20); test: Human whole blood IL-1β release assay (LPS + nigericin, AlphaLisa); type: cell-based; design: Plate out 80 μl of whole blood containing 1 μg/ml of LPS in 96-well, clear bottom cell culture plate; from tissue; host or cells: human whole blood from healthy donors (Li-heparin); conditions: NLRP3 inhibitory activity in human whole blood, 1 μg/ml LPS, 10 μM nigericin, read-out: HWB IC50
T1 sequence (Q96P20 whole entry): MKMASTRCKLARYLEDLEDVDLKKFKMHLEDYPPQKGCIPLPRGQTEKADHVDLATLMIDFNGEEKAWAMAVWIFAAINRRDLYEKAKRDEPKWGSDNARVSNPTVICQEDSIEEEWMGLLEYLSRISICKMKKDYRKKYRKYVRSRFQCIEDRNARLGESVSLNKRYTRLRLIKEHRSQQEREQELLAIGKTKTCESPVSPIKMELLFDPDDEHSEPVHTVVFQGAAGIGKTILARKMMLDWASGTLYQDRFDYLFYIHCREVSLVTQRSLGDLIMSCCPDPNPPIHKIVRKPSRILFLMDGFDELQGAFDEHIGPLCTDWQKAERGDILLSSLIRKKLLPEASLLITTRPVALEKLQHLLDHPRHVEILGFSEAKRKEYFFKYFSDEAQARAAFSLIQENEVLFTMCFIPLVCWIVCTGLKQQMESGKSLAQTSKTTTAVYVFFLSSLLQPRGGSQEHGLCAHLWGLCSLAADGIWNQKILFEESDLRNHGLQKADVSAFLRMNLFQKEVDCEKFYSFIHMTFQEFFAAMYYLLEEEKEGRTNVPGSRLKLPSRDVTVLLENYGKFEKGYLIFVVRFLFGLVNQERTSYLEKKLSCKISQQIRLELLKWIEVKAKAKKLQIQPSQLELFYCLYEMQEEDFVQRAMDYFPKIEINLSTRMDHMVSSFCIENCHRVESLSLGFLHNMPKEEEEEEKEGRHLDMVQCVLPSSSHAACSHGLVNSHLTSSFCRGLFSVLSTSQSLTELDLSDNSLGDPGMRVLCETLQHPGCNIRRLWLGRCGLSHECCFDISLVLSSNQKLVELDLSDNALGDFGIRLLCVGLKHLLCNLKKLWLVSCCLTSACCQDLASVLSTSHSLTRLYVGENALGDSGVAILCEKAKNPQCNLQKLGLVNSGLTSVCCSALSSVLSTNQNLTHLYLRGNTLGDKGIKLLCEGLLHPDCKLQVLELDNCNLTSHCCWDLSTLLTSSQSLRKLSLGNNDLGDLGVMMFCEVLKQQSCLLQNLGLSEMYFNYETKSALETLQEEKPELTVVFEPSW
Experimental: For systemic delivery, the ability to inhibit NLRP3 when the compounds are present within the bloodstream is of great importance. For this reason, the NLRP3 inhibitory activity of a number of compounds in human whole blood was investigated in accordance with the following protocol.
Human whole blood in Li-heparin tubes was obtained from healthy donors from a volunteer donor panel. • 1. Plate out 80 μl of whole blood containing 1 μg/ml of LPS in 96-well, clear bottom cell culture plate (Corning #3585) • 2. Add 10 μl compound (8 points half-log dilution with 10 μM top dose) or vehicle (DMSO 0.1% FAC) to the appropriate wells • 3. Incubate for 3 hrs at 37° C., 5% CO2 • 4. Add 10 μl nigericin (Sigma #N7143) (10 μM FAC) to all wells • 5. Incubate for 1 hr at 37° C., 5% CO2 • 6. At the end of the incubation period, spin plates at 300×g for 5 mins to pellet cells and remove 20 μl of supernatant and add to 96-well v-bottom plates for IL-1β analysis (note: these plates containing the supernatants can be stored at −80° C. to be analysed at a later date) • 7. IL-1β was measured according to the manufacturer protocol (Perkin Elmer-AlphaLisa IL-1 Kit AL220F-5000) • 8. IC50 data is fitted to a non-linear regression equation (log inhibitor vs response-variable slope 4-parameters)

[2] = target: T1, NLRP3; test: THP-1 cells pyroptosis assay (LPS-primed, nigericin-triggered, resazurin readout); type: cell-based; design: Seed THP-1 cells (25,000 cells/well) containing 1.0 μg/ml LPS in 40 μl of RPMI medium; host or cells: THP-1 cells, LPS-primed, nigericin-triggered; conditions: NLRP3 inhibitory activity in THP-1 cells, 1.0 μg/ml LPS, 5 μM nigericin
Experimental: THP-1 cells (ATCC #TIB-202) were grown in RPMI containing L-glutamine (Gibco #11835) supplemented with ImM sodium pyruvate (Sigma #S8636) and penicillin (100 units/ml)/streptomycin (0.1 mg/ml) (Sigma #P4333) in 10% Fetal Bovine Serum (FBS) (Sigma #F0804). The cells were routinely passaged and grown to confluency ([…]). On the day of the experiment, THP-1 cells were harvested and resuspended into RPMI medium (without FBS). The cells were then counted and viability (>90%) checked by Trypan blue (Sigma #T8154). Appropriate dilutions were made to give a concentration of 625,000 cells/ml. To this diluted cell solution was added LPS (Sigma #L4524) to give a 1 μg/ml Final Assay Concentration (FAC). […] of the final preparation was aliquoted into each well of a 96-well plate. The plate thus prepared was used for compound screening.
The following method step-by-step assay was followed for compound screening. • 1. Seed THP-1 cells (25,000 cells/well) containing 1.0 μg/ml LPS in 40 μl of RPMI medium (without FBS) in 96-well, black walled, clear bottom cell culture plates coated with poly-D-lysine (VWR #734-0317) • 2. Add 5 μl compound (8 points half-log dilution, with 10 μM top dose) or vehicle (DMSO 0.1% FAC) to the appropriate wells • 3. Incubate for 3 hrs at 37° C. in 5% CO2 • 4. Add 5 μl nigericin (Sigma #N7143) (FAC 5 μM) to all wells • 5. Incubate for 1 hr at 37° C. and 5% CO2 • 6. At the end of the incubation period, spin plates at 300×g for 3 mins and remove supernatant • 7. Then add 50 μl of resazurin (Sigma #R7017) (FAC 100 μM resazurin in RPMI medium without FBS) and incubate plates for a further 1-2 hrs at 37° C. and 5% CO2 • 8. Plates were read in an Envision reader at Ex 560 nm and Em 590 nm • 9. IC50 data is fitted to a non-linear regression equation (log inhibitor vs response-variable slope 4-parameters)

Structure (SMILES)	IC50 [1] [µM]	IC50 [2] [µM]
O=C(Nc1c2c(cc3c1CCC3)CCC2)NS(=O)(=O)Cc1ccccc1 [Example 1, N-((1,2,3,5,6,7-Hexahydro-s-indacen-4-yl)carbamoyl)-1-phenyl Methanesulfonamide, Potassium Salt]	≤ 5	≤ 1
CC(C)CS(=O)(=O)NC(=O)Nc1c2c(cc3c1CCC3)CCC2 [Example 2, N-((1,2,3,5,6,7-Hexahydro-s-indacen-4-yl)carbamoyl)-2-methylpropane-1-sulfonamide, Potassium Salt]		≤ 1
C=CS(=O)(=O)NC(=O)Nc1c2c(cc3c1CCC3)CCC2 [Example 3, N-((1,2,3,5,6,7-Hexahydro-s-indacen-4-yl)carbamoyl)ethenesulfonamide]	≤ 5	≤ 1
O=C(Nc1c2c(cc3c1CCC3)CCC2)NS(=O)(=O)Cc1cc(Cl)cc(Cl)c1 [Example 4, 1-(3,5-Dichlorophenyl)-N-((1,2,3,5,6,7-hexahydro-s-indacen-4-yl)carbamoyl)methanesulfonamide, Sodium Salt]	> 10	≤ 1
O=C(Nc1c2c(cc3c1CCC3)CCC2)NS(=O)(=O)Cc1ccc(Cl)cc1 [Example 5, 1-(4-Chlorophenyl)-N-((1,2,3,5,6,7-hexahydro-s-indacen-4-yl)carbamoyl)methanesulfonamide, Sodium Salt]	5 to 7.5	≤ 1
O=C(Nc1c2c(cc3c1CCC3)CCC2)NS(=O)(=O)Cc1ccc(Cl)c(Cl)c1 [Example 6, 1-(3,4-Dichlorophenyl)-N-((1,2,3,5,6,7-hexahydro-s-indacen-4-yl)carbamoyl)methanesulfonamide, Sodium Salt]	> 10	≤ 1
O=C(Nc1c2c(cc3c1CCC3)CCC2)NS(=O)(=O)Cc1ccc(F)cc1 [Example 7, 1-(4-Fluorophenyl)-N-((1,2,3,5,6,7-hexahydro-s-indacen-4-yl)carbamoyl)methanesulfonamide, Sodium Salt]	≤ 5	≤ 1
N#Cc1ccc(CS(=O)(=O)NC(=O)Nc2c3c(cc4c2CCC4)CCC3)cc1 [Example 8, 1-(4-Cyanophenyl)-N-((1,2,3,5,6,7-hexahydro-s-indacen-4-yl)carbamoyl)methanesulfonamide, Sodium Salt]	≤ 5	≤ 1
COC(=O)c1ccc(CS(=O)(=O)NC(=O)Nc2c3c(cc4c2CCC4)CCC3)cc1 [Example 9, Methyl 4-((N-((1,2,3,5,6,7-hexahydro-s-indacen-4-yl)carbamoyl)sulfamoyl)methyl)benzoate, Sodium Salt]	≤ 5	≤ 1
O=C(Nc1c2c(cc3c1CCC3)CCC2)NS(=O)(=O)Cc1ccc(C(F)(F)F)cc1 [Example 10, N-((1,2,3,5,6,7-Hexahydro-s-indacen-4-yl)carbamoyl)-1-(4-(trifluoromethyl)phenyl)methanesulfonamide, Sodium Salt]	5 to 7.5	≤ 1
COc1cccc(CS(=O)(=O)NC(=O)Nc2c3c(cc4c2CCC4)CCC3)c1 [Example 11, N-((1,2,3,5,6,7-Hexahydro-s-indacen-4-yl)carbamoyl)-1-(3-methoxyphenyl)methanesulfonamide, Sodium Salt]	7.5 to 10	≤ 1
O=C(Nc1c2c(cc3c1CCC3)CCC2)NS(=O)(=O)Cc1ccc(Cl)cc1F [Example 12, 1-(4-Chloro-2-fluorophenyl)-N-((1,2,3,5,6,7-hexahydro-s-indacen-4-yl)carbamoyl)methanesulfonamide, Sodium Salt]	> 10	≤ 1
O=C(Nc1c2c(cc3c1CCC3)CCC2)NS(=O)(=O)Cc1ccc(Cl)c(F)c1 [Example 13, 1-(4-Chloro-3-fluorophenyl)-N-((1,2,3,5,6,7-hexahydro-s-indacen-4-yl)carbamoyl)methanesulfonamide, Sodium Salt]	> 10	≤ 1
Cc1ccc(CS(=O)(=O)NC(=O)Nc2c3c(cc4c2CCC4)CCC3)cc1 [Example 14, N-((1,2,3,5,6,7-Hexahydro-s-indacen-4-yl)carbamoyl)-1-(p-tolyl)methanesulfonamide, Sodium Salt]	5 to 7.5	≤ 1
O=C(Nc1c2c(cc3c1CCC3)CCC2)NS(=O)(=O)Cc1ccccc1Cl [Example 15, 1-(2-Chlorophenyl)-N-((1,2,3,5,6,7-hexahydro-s-indacen-4-yl)carbamoyl)methanesulfonamide, Sodium Salt]	> 10	≤ 1
O=C(Nc1c2c(cc3c1CCC3)CCC2)NS(=O)(=O)Cc1ccccc1C(F)(F)F [Example 16, N-((1,2,3,5,6,7-Hexahydro-s-indacen-4-yl)carbamoyl)-1-(2-(trifluoromethyl)phenyl)methanesulfonamide, Sodium Salt]		≤ 1
O=C(Nc1c2c(cc3c1CCC3)CCC2)NS(=O)(=O)Cc1ccccc1Br [Example 17, 1-(2-Bromophenyl)-N-((1,2,3,5,6,7-hexahydro-s-indacen-4-yl)carbamoyl)methanesulfonamide, Sodium Salt]		≤ 1
COC(=O)c1ccccc1CS(=O)(=O)NC(=O)Nc1c2c(cc3c1CCC3)CCC2 [Example 18, Methyl 2-((N-((1,2,3,5,6,7-hexahydro-s-indacen-4-yl)carbamoyl)sulfamoyl)methyl)benzoate]		≤ 1
O=C(Nc1c2c(cc3c1CCC3)CCC2)NS(=O)(=O)Cc1cccc(Br)c1 [Example 19, 1-(3-Bromophenyl)-N-((1,2,3,5,6,7-hexahydro-s-indacen-4-yl)carbamoyl)methanesulfonamide, Sodium Salt]	> 10	≤ 1
Cc1cccc(CS(=O)(=O)NC(=O)Nc2c3c(cc4c2CCC4)CCC3)c1 [Example 20, N-((1,2,3,5,6,7-Hexahydro-s-indacen-4-yl)carbamoyl)-1-(m-tolyl)methanesulfonamide, Sodium Salt]	5 to 7.5	≤ 1
[N-]=[N+]=NCCCS(=O)(=O)NC(=O)Nc1c2c(cc3c1CCC3)CCC2 [Example 21, 3-Azido-N-((1,2,3,5,6,7-hexahydro-s-indacen-4-yl)carbamoyl) propane-1-sulfonamide, Potassium Salt]	≤ 5	≤ 1
O=C(Nc1c(-c2ccncc2)cc(F)c2c1CCC2)NS(=O)(=O)Cc1ccccc1 [Example 25, N-((7-Fluoro-5-(pyridin-4-yl)-2,3-dihydro-1H-inden-4-yl)carbamoyl)-1-phenylmethanesulfonamide]		2 to 10
O=C(Nc1c(-c2ccncc2)cc(F)c2c1CCC2)NS(=O)(=O)CCc1ccccc1 [Example 33, N-((7-Fluoro-5-(pyridin-4-yl)-2,3-dihydro-1H-inden-4-yl)carbamoyl)-2-phenylethanesulfonamide]	5 to 7.5	
CC(C)c1cc(F)cc(-c2ccnc(C#N)c2)c1NC(=O)NS(=O)(=O)C(C)c1ccccc1 (stereo not shown) [Example 34, N-((2-(2-Cyanopyridin-4-yl)-4-fluoro-6-isopropylphenyl)carbamoyl)-1-phenylethanesulfonamide]		2 to 10
CC(c1ccccc1)S(=O)(=O)NC(=O)Nc1c2c(cc3c1CCC3)CCC2 (stereo not shown) [Example 39, N-((1,2,3,5,6,7-Hexahydro-s-indacen-4-yl)carbamoyl)-1-phenylethanesulfonamide]	7.5 to 10	≤ 1
